# Laboratory results from patent US8138188B2, “Melanocortin type 4 receptor agonist piperidinoylpyrrolidines” (Pfizer Inc., priority 2006, dated 2012).
# Columns and labels:
# MC4 receptor (MC4R) = target: T1, MC4 receptor (MC4R) (Homo sapiens, UniProt P32245); assay: AGRP inhibition: competition binding vs [125I]AGRP(87-132) at CHO-CRE MC4R cell membranes; details: vs 0.3 nM [125I]AGRP(87-132)
# T1 construct: expressed in transfected cells; host or cells: CHO-CRE MC4R cells (membranes)
# Description: Agouti related protein (AGRP) is a high affinity endogenous antagonist/inverse agonist for the MC4 receptor (Lu et al., 1994, Nature 371: 799-802; Oilman et al., 1997, Science 278: 135-138). […] It has been ascertained that this C-terminal fragment of AGRP contains the MC4R binding determinants (Yang et al., 1999, Mol Endocrinol 13: 148-155), therefore, compounds can be evaluated for their ability to inhibit AGRP binding to membranes from cells expressing the MC4R using a competition binding assay versus [^125I]AGRP(87-132). To this end cells expressing the MC4R were subject to homogenisation and the membrane fragment isolated by differential centrifugation. CHO-CRE MC4R cell membranes (12 μg protein) were incubated with 0.3 nM [^125I]AGRP(87-132) and 11 half-log concentrations of competitor ligand, in duplicate, in a total volume of 100 μl buffer (25 mM HEPES, 1 mM MgCl2, 2.5 mM CaCl2, 0.5% BSA pH 7.0). Non-specific binding was determined by the inclusion of 1 μM SHU9119. The reaction was initiated by the addition of membranes and plates were incubated at room temperature for 2 hours. The reaction was terminated by rapid filtration onto GF/C filters (presoaked in 1% PEI) using a vacuum harvester followed by five 200 μl washes of ice cold wash buffer (Binding buffer containing 500 mM NaCl). The filters were soaked in 50 μl scintillation fluid and the amount of radioactivity present was determined by liquid scintillation counting. Ki values were determined by data analysis using appropriate software.
# MC3 receptor (MC3R) = target: T2, MC3 receptor (MC3R) (Homo sapiens, UniProt P41968); assay: Nle4, D-Phe7-α-MSH inhibition at the MC3 receptor (SPA competition binding); details: vs 0.06 nM Nle4, D-Phe7-α-MSH, CHO-CRE MC3R cell membranes
# T2 construct: expressed in transfected cells; host or cells: CHO-CRE MC3R cells (membranes)
# T2 sequence (P41968 whole entry): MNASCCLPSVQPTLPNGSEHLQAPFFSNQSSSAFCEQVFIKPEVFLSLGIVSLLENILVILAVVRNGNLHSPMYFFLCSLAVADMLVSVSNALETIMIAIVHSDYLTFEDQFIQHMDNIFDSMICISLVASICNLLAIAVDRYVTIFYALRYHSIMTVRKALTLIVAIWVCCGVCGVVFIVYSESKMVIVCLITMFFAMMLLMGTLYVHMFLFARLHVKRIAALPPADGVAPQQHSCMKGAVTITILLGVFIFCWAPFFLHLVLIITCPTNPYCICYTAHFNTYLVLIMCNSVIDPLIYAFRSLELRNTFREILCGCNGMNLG
# Description: Nle4, D-Phe7-α-MSH Inhibition at the MC3 Receptor
# Nle4, D-Phe7-α-MSH is a stable analogue of melanocyte-stimulating hormone (MSH), which is an agonist at the MC3 receptor (MC3R). Compounds can be evaluated for their ability to inhibit Nle4, D-Phe7-α-MSH binding to membranes from cells expressing the MC3R using a competition binding assay versus [^125I] Nle4, D-Phe7-α-MSH.
# Cells expressing the MC3R were subject to homogenisation and the membrane fragment isolated by differential centrifugation. CHO-CRE MC3R cell membranes were coupled to PVT-PEI-WGA SPA Beads type A for 2 hours, spun at 1000 RPM for 5 mins and suspended to a final assay concentration of 800 ug bead/ml (1.2 ug membrane, 40 ug bead per well). Bead/membrane mix was incubated with 0.06 nM Nle4, D-Phe7-α-MSH and 11 half-log concentrations of competitor ligand, in duplicate, in a total volume of 50 μl buffer per well (25 mM HEPES, 1 mM MgCl2, 2.5 mM CaCl2, 1% Pluronic F68, 1 complete EDTA protease inhibitor tablet/50 ml pH7).
# Non-specific binding was determined by the inclusion of 100 nM SHU9119. The reaction was initiated by the addition of bead/membranes and plates were incubated at room temperature for 12 hours (the first hour on a plate shaker), after which the amount of radioactivity present was determined using a Wallac plate counter. Ki values were determined by data analysis using appropriate software.
# T1 sequence (P32245 whole entry): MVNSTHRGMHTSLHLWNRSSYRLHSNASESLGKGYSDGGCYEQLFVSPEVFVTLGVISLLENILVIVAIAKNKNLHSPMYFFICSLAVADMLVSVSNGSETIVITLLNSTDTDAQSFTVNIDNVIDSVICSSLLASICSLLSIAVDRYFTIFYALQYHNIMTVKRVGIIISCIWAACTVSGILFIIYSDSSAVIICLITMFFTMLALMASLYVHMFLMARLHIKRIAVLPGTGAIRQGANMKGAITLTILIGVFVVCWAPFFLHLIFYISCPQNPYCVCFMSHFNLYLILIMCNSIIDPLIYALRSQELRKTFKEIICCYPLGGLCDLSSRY
Ki (MC4 receptor (MC4R)) [nM],Ki (MC3 receptor (MC3R)) [nM],SMILES
> 955,,CC1CN(C(=O)C2CN(c3cncc(F)c3)CC2c2ccc(Cl)cn2)CC(C)C1(O)C1CC1 (stereo not drawn) [Example 24]
363,,COc1ccc(N2CC(C(=O)N3CC(C)C(O)(C4CC4)C(C)C3)C(c3ccc(Cl)cn3)C2)nn1 (stereo not drawn) [Example 26]
100,,CC1CN(C(=O)C2CN(c3ccc(=O)[nH]n3)CC2c2ccc(Cl)cn2)CC(C)C1(O)c1ccccc1 (stereo not drawn) [Example 27]
516,1670,C[C@@H]1CN(C(=O)[C@@H]2CN(c3ccc(=O)[nH]n3)C[C@H]2c2ccc(Cl)cn2)C[C@H](C)[C@@]1(O)c1ccccn1 [Example 28]
112,,CC1CN(C(=O)C2CN(c3ccc(C#N)nn3)CC2c2ccc(Cl)cn2)CC(C)C1(O)c1ccccn1 (stereo not drawn) [Example 30]
526,,C[C@@H]1CN(C(=O)[C@@H]2CN(c3ccc(Cl)nn3)C[C@H]2c2ccc(Cl)cn2)C[C@H](C)[C@@]1(O)c1ccccn1 [Example 31]
220,,CC1CN(C(=O)C2CN(c3ccc(C#N)nn3)CC2c2ccc(F)cn2)CC(C)C1(O)c1ccccc1 (stereo not drawn) [Example 33]
386,,C[C@@H]1CN(C(=O)[C@@H]2CN(c3ccc(Cl)nn3)C[C@H]2c2ccc(F)cn2)C[C@H](C)[C@@]1(O)c1ccccc1 [Example 35]
422,,CC1CN(C(=O)C2CN(c3ccc(=O)[nH]n3)CC2c2ccc(F)cn2)CC(C)C1(O)c1ccccc1 (stereo not drawn) [Example 37]
751,,CC1CN(C(=O)C2CN(c3ccc(=O)n(C)n3)CC2c2ccc(F)cn2)CC(C)C1(O)c1ccccc1 (stereo not drawn) [Example 39]
430,,CC1CN(C(=O)C2CN(c3ccc(=O)n(C)n3)CC2c2ccc(F)cn2)CC(C)C1(O)c1ccc(F)cc1 (stereo not drawn) [Example 40]
3750,,COc1ccc([C@@H]2CN(c3ccc(=O)[nH]n3)C[C@H]2C(=O)N2C[C@@H](C)[C@](O)(c3ccc(Cl)cn3)[C@@H](C)C2)nc1 [Example 41]
888,,COc1ccc(C2CN(c3ccc(=O)[nH]n3)CC2C(=O)N2CC(C)C(O)(c3ccc(F)cc3)C(C)C2)nc1 (stereo not drawn) [Example 42]
248,,COc1ccc([C@@H]2CN(c3ccc(C#N)nn3)C[C@H]2C(=O)N2C[C@@H](C)[C@](O)(c3ccc(F)cc3)[C@@H](C)C2)nc1 [Example 43]
251,,CC1CN(C(=O)C2CN(c3ccc(C#N)cn3)CC2c2ccc(C#N)cn2)CC(C)C1(O)c1ccc(F)cc1 (stereo not drawn) [Example 45]
134,551,C[C@@H]1CN(C(=O)[C@@H]2CN(c3ccc(C#N)nn3)C[C@H]2c2ccc(C#N)cn2)C[C@H](C)[C@@]1(O)c1ccc(F)cc1 [Example 46]

# The next lines start with the molecule.
SMILES,Ki (MC4 receptor (MC4R)) [nM],Ki (MC3 receptor (MC3R)) [nM]
"C[C@@H]1CN(C(=O)[C@@H]2CN(c3ccc(C#N)cn3)C[C@H]2c2ccc(Cl)cn2)C[C@H](C)[C@@]1(O)c1ccc(F)cc1 [Example 1, 6-[(3S,4S)-3-(5-Chloropyridin-2-yl)-4-{[(3R,4R,5S)-4-(4-fluorophenyl)-4-hydroxy-3,5-dimethylpiperidin-1-yl]carbonyl}pyrrolidin-1-yl]nicotinonitrile]",39,
"COc1ccc(N2C[C@@H](C(=O)N3C[C@@H](C)[C@](O)(c4ccc(F)cc4)[C@@H](C)C3)[C@H](c3ccc(Cl)cn3)C2)nn1 [Example 4, (3R,4R,5S)-1-{[(3S,4S)-4-(5-chloropyridin-2-yl)-1-(6-methoxypyridazin-3-yl)pyrrolidin-3-yl]carbonyl}-4-(4-fluorophenyl)-3,5-dimethylpiperidin-4-ol]",51,
"C[C@@H]1CN(C(=O)[C@@H]2CN(c3ccc(Cl)nn3)C[C@H]2c2ccc(F)cn2)C[C@H](C)[C@@]1(O)c1ccc(Cl)cc1 [Example 5, (3R,4R,5S)-4-(4-chlorophenyl)-1-{[(3S,4S)-1-(6-chloropyridazin-3-yl)-4-(5-fluoropyridin-2-yl)pyrrolidin-3-yl]carbonyl}-3,5-dimethylpiperidin-4-ol]",552,
"C[C@@H]1CN(C(=O)[C@@H]2CN(c3ccc(=O)[nH]n3)C[C@H]2c2ccc(F)cn2)C[C@H](C)[C@@]1(O)c1ccc(Cl)cc1 [Example 6, 6-[(3S,4S)-3-{[(3R,4R,5S)-4-(4-chlorophenyl)-4-hydroxy-3,5-dimethylpiperidin-1-yl]carbonyl}-4-(5-fluoropyridin-2-yl)pyrrolidin-1-yl]pyridazin-3(2H)-one]",456,
"C[C@@H]1CN(C(=O)[C@@H]2CN(c3ccc(=O)n(C)n3)C[C@H]2c2ccc(F)cn2)C[C@H](C)[C@@]1(O)c1ccc(Cl)cc1 [Example 7, 6-[(3S,4S)-3-{[(3R,4R,5S)-4-(4-chlorophenyl)-4-hydroxy-3,5-dimethylpiperidin-1-yl]carbonyl}-4-(5-fluoropyridin-2-yl)pyrrolidin-1-yl]-2-methylpyridazin-3(2H)-one]",714,
"C[C@@H]1CN(C(=O)[C@@H]2CN(c3cncc(F)c3)C[C@H]2c2ccc(Cl)cn2)C[C@H](C)[C@@]1(O)c1ccccn1 [Example 8, (3R,4R,5S)-1-{[(3S,4S)-4-(5-chloropyridin-2-yl)-1-(5-fluoropyridin-3-yl)pyrrolidin-3-yl]carbonyl}-3,5-dimethyl-4-pyridin-2-ylpiperidin-4-ol]",643,
"C[C@@H]1CN(C(=O)[C@@H]2CN(c3cccnn3)C[C@H]2c2ccc(Cl)cn2)C[C@H](C)[C@@]1(O)c1ccccn1 [Example 9, (3R,4R,5S)-1-{[(3S,4S)-4-(5-chloropyridin-2-yl)-1-pyridazin-3-ylpyrrolidin-3-yl]carbonyl}-3,5-dimethyl-4-pyridin-2-ylpiperidin-4-ol]",523,
COc1ccc(C2CN(c3ccc(C#N)nn3)CC2C(=O)N2CC(C)C(O)(c3ccc(F)cc3)C(C)C2)cn1 (stereo not drawn) [Example 16],251,
C[C@@H]1CN(C(=O)[C@@H]2CN(c3ccc(=O)n(C)n3)C[C@H]2c2ccc(Cl)cn2)C[C@H](C)[C@@]1(O)C1CC1 [Example 18],965,
CC1CN(C(=O)C2CN(c3ccc(=O)n(C)n3)CC2c2ccc(Cl)cn2)CC(C)C1(O)c1ccccc1 (stereo not drawn) [Example 21],66,
C[C@@H]1CN(C(=O)[C@@H]2CN(c3ccc(=O)n(C)n3)C[C@H]2c2ccc(Cl)cn2)C[C@H](C)[C@@]1(O)c1ccccn1 [Example 22],5960,5560
